Data reported in patent US11739074B2, “Ras inhibitors” (Revolution Medicines, Inc., priority 2019, dated 2023).
Like-named read-outs stand apart in the source and are kept apart here.

What was measured:
[1] = system: AsPC-1 (K-Ras G12D); assay: Potency assay: pERK in AsPC-1 cells; assay type: cell-based; settings: Homo sapiens
[2] = system: AsPC-1 (K-Ras G12D); assay: CellTiter-Glo cell viability assay, AsPC-1; assay type: cell-based; settings: Homo sapiens, ASPC1, 120 h
Summary of the method: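 Compounds dispensed directly onto seeded AsPC-1 (K-Ras G12D) or NCI-H358 (K-Ras G12C) cells; CellTiter-Glo luminescence read on day 5 after ~30 min equilibration to room temperature. Signal normalized to DMSO average (%) and fit by four-parameter logistic.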

[3] = ASPC1, AsPC-1 cells, K-Ras G12D, read-out: pERK EC50 (AsPC-1 KRAS G12D)
[4] = AsPC-1, K-Ras G12D, 5-day treatment, read-out: AsPC-1 Cell Viability IC50
[5] = ASPC1, read-out: pERK EC50 (AsPC-1 KRAS G12D)
[6] = read-out: AsPC-1 Cell Viability IC50, AsPC-1, K-Ras G12D, 5-day treatment

## CCN1C[C@@H]1C(=O)N(C)CC(=O)N(C)[C@H](C(=O)N[C@H]1Cc2cc(O)cc(c2)-c2ccc3c(c2)c(c(-c2cccnc2[C@H](C)OC)n3CC)CC(C)(C)COC(=O)[C@@H]2CCCN(N2)C1=O)C1CCCC1 (stereo partly shown) [Compound 309]
[1]; [3]
  EC50: < 5 µM
[2]; [4]
  IC50: 0.01 to 0.1 µM

## CCn1c(-c2cccnc2[C@H](C)OC)c2c3cc(ccc31)-c1cc(O)cc(c1)C[C@H](NC(=O)[C@H](C(C)C)N(C)C(=O)[C@]1(F)CCN(C(=O)[C@@H]3CN3)C1)C(=O)N1CCC[C@H](N1)C(=O)OCC(C)(C)C2 [Compound 184]
[1]; [3]
  EC50: < 5 µM
[2]; [4]
  IC50: 1 to 10 µM

## CCn1c(-c2cccnc2[C@H](C)OC)c2c3cc(ccc31)-c1cc(O)cc(c1)C[C@H](NC(=O)[C@H](C(C)C)N(C)C(=O)[C@]13C[C@H]1CCN3C(=O)[C@H]1CN1)C(=O)N1CCC[C@H](N1)C(=O)OCC(C)(C)C2 [Compound 244]
[1]; [3]
  EC50: < 5 µM
[2]; [4]
  IC50: 1 to 10 µM

## CCn1c(-c2cccnc2[C@H](C)OC)c2c3cc(ccc31)-c1cc(O)cc(c1)C[C@H](NC(=O)[C@H](C(C)C)N(C)C(=O)[C@@H](C)N(C)C(=O)[C@H]1CN1)C(=O)N1CCC[C@H](N1)C(=O)OCC(C)(C)C2 [Compound 114]
[1]; [5]
  EC50: < 5 µM
[2]; [6]
  IC50: 1 to 10 µM

## CCn1c(-c2cccnc2[C@H](C)OC)c2c3cc(ccc31)-c1cc(O)cc(c1)C[C@H](NC(=O)[C@H](C(C)C)N(C)C(=O)CN(C)C(=O)[C@@H]1N[C@@H]1C1COC1)C(=O)N1CCC[C@H](N1)C(=O)OCC(C)(C)C2 [Compound 281]
[1]; [5]
  EC50: < 5 µM
[2]; [6]
  IC50: 0.1 to 1 µM

## CCn1c(-c2cnccc2COC)c2c3cc(ccc31)-c1cc(O)cc(c1)C[C@H](NC(=O)[C@H](C(C)C)N(C)C(=O)CN(C)C(=O)[C@H]1N[C@H]1c1ccc(OC)cc1)C(=O)N1CCC[C@H](N1)C(=O)OCC(C)(C)C2 [Compound 93]
[1]; [5]
  EC50: < 5 µM
[2]; [6]
  IC50: > 10 µM

## CCn1c(-c2cccnc2[C@H](C)OC)c2c3cc(ccc31)-c1cc(O)cc(c1)C[C@H](NC(=O)[C@H](C(C)C)N(C)C(=O)CC1CN(C(=O)[C@H]3CN3)C1)C(=O)N1CCC[C@H](N1)C(=O)OCC(C)(C)C2 [Compound 179]
[1]; [3]
  EC50: < 5 µM
[2]; [4]
  IC50: > 10 µM

## CCn1c(-c2cccnc2[C@H](C)OC)c2c3cc(ccc31)-c1cc(O)cc(c1)C[C@H](NC(=O)[C@H](C(C)C)N(C)C(=O)CNC(=O)[C@@H]1CN1)C(=O)N1CCC[C@H](N1)C(=O)OCC(C)(C)C2 [Compound 147]
[1]; [5]
  EC50: < 5 µM
[2]; [6]
  IC50: 1 to 10 µM

## CCn1c(-c2cccnc2[C@H](C)OC)c2c3cc(ccc31)-c1cc(O)cc(c1)C[C@H](NC(=O)[C@H](C(C)C)N(C)C(=O)C1CCN(S(=O)(=O)[C@@H]3CN3C)CC1)C(=O)N1CCC[C@H](N1)C(=O)OCC(C)(C)C2 (single isomer, unassigned) [Compound 119]
[1]; [3]
  EC50: < 5 µM
[2]; [4]
  IC50: 1 to 10 µM

## CCn1c(-c2cccnc2[C@H](C)OC)c2c3cc(ccc31)-c1cccc(c1)C[C@H](NC(=O)[C@H](C(C)C)N1CC[C@@H](CN=C=NCCOC)C1)C(=O)N1CCC[C@H](N1)C(=O)OCC(C)(C)C2 [Compound 121]
[1]; [3]
  EC50: < 5 µM
[2]; [4]
  IC50: 1 to 10 µM

## CCn1c(-c2cccnc2[C@H](C)OC)c2c3cc(ccc31)-c1csc(n1)C[C@H](NC(=O)[C@H](C(C)C)N(C)C(=O)N(C)[C@H]1CCCN(C(=O)[C@H]3CN3)C1)C(=O)N1CCC[C@H](N1)C(=O)OCC(C)(C)C2 [Compound 295]
[1]; [3]
  EC50: < 5 µM
[2]; [4]
  IC50: 1 to 10 µM

## CCn1c(-c2cccnc2[C@H](C)OC)c2c3cc(ccc31)-c1cc(O)cc(c1)C[C@H](NC(=O)[C@H](C(C)C)N(C)C(=O)[C@H]1CN1)C(=O)N1CCC[C@H](N1)C(=O)OCC(C)(C)C2 [Compound 112]
[1]; [3]
  EC50: < 5 µM
[2]; [4]
  IC50: 1 to 10 µM

## CCn1c(-c2cccnc2[C@H](C)OC)c2c3cc(ccc31)-c1cc(O)cc(c1)C[C@H](NC(=O)[C@H](C(C)C)N(C)C(=O)C1CCN(C(=O)[C@@H]3CN3)CC1)C(=O)N1CCC[C@H](N1)C(=O)OCC(C)(C)C2 [Compound 89]
[1]; [3]
  EC50: < 5 µM
[2]; [4]
  IC50: > 10 µM

## CCn1c(-c2cccnc2[C@H](C)OC)c2c3cc(ccc31)-c1cc(O)cc(c1)C[C@H](NC(=O)[C@H](C(C)C)N(C)C(=O)N(C)CCN(C)C(=O)[C@H]1CN1)C(=O)N1CCC[C@H](N1)C(=O)OCC(C)(C)C2 [Compound 204]
[1]; [3]
  EC50: < 5 µM
[2]; [4]
  IC50: 1 to 10 µM

## CCn1c(-c2cnccc2COC)c2c3cc(ccc31)-c1cc(O)cc(c1)C[C@H](NC(=O)[C@H](C(C)C)N(C)C(=O)CN(C)C(=O)[C@H]1N[C@@H]1c1ccc(OC)cc1)C(=O)N1CCC[C@H](N1)C(=O)OCC(C)(C)C2 [Compound 97]
[1]; [5]
  EC50: < 5 µM
[2]; [6]
  IC50: 1 to 10 µM

## CCn1c(-c2cccnc2[C@H](C)OC)c2c3cc(ccc31)-c1cc(O)cc(c1)C[C@H](NC(=O)[C@H](C(C)C)N(C)C(=O)C1CCN(C(=O)[C@H]3CN3)CC1)C(=O)N1CCC[C@H](N1)C(=O)OCC(C)(C)C2 [Compound 86]
[1]; [3]
  EC50: < 5 µM
[2]; [4]
  IC50: 1 to 10 µM

## CCn1c(-c2cccnc2[C@H](C)OC)c2c3cc(ccc31)-c1cc(O)cc(c1)C[C@H](NC(=O)[C@H](C(C)C)N(C)C(=O)CN(C)C(=O)[C@H]1CN1CCO)C(=O)N1CCC[C@H](N1)C(=O)OCC(C)(C)C2 (stereo partly shown) [Compound 161]
[1]; [5]
  EC50: < 5 µM
[2]; [6]
  IC50: 1 to 10 µM

## CCn1c(-c2cccnc2[C@H](C)OC)c2c3cc(ccc31)-c1cc(O)cc(c1)C[C@H](NC(=O)[C@H](C1CCCC1)N(C)C(=O)CN(C)C(=O)[C@@H]1N[C@@H]1C1(F)CC1)C(=O)N1CCC[C@H](N1)C(=O)OCC(C)(C)C2 [Compound 314]
[1]; [3]
  EC50: < 5 µM
[2]; [4]
  IC50: 0.1 to 1 µM

## CCn1c(-c2cccnc2[C@H](C)OC)c2c3cc(ccc31)-c1cccc(c1)C[C@H](NC(=O)[C@H](C(C)C)N(C)C(=O)CCN=C=NCCOC)C(=O)N1CCC[C@H](N1)C(=O)OCC(C)(C)C2 [Compound 74]
[1]; [3]
  EC50: < 5 µM
[2]; [4]
  IC50: 1 to 10 µM

## CCn1c(-c2cccnc2[C@H](C)OC)c2c3cc(ccc31)-c1cc(O)cc(c1)C[C@H](NC(=O)[C@H](C(C)C)N1CCC3(CCN(C(=O)[C@@H]4CN4)C3)C1=O)C(=O)N1CCC[C@H](N1)C(=O)OCC(C)(C)C2 (stereo partly shown) [Compound 113]
[1]; [3]
  EC50: < 5 µM
[2]; [4]
  IC50: 1 to 10 µM

## CCn1c(-c2cnccc2COC)c2c3cc(ccc31)-c1cc(O)cc(c1)C[C@H](NC(=O)[C@H](C(C)C)N(C)C(=O)CN(C)C(=O)[C@H]1N[C@H]1C1CC1)C(=O)N1CCC[C@H](N1)C(=O)OCC(C)(C)C2 [Compound 104]
[1]; [5]
  EC50: < 5 µM
[2]; [6]
  IC50: 1 to 10 µM

## CCn1c(-c2cccnc2[C@H](C)OC)c2c3cc(ccc31)-c1cc(O)cc(c1)C[C@H](NC(=O)[C@H](C(C)C)N(C)C(=O)CN(C)C(=O)[C@H]1CN1C1COC1)C(=O)N1CCC[C@H](N1)C(=O)OCC(C)(C)C2 (stereo partly shown) [Compound 275]
[1]; [5]
  EC50: < 5 µM
[2]; [6]
  IC50: 1 to 10 µM

## CCn1c(-c2cccnc2[C@H](C)OC)c2c3cc(ccc31)-c1cc(O)cc(c1)C[C@H](NC(=O)[C@H](C(C)C)N1CC[C@]3(CCN(C(=O)[C@@H]4N[C@@H]4C4CC4)C3)C1=O)C(=O)N1CCC[C@H](N1)C(=O)OCC(C)(C)C2 [Compound 305]
[1]; [3]
  EC50: < 5 µM
[2]; [4]
  IC50: 0.1 to 1 µM

## CCn1c(-c2cnccc2COC)c2c3cc(ccc31)-c1cc(O)cc(c1)C[C@H](NC(=O)[C@H](C(C)C)N(C)C(=O)CN(C)C(=O)[C@H]1N[C@H]1C(=O)OC)C(=O)N1CCC[C@H](N1)C(=O)OCC(C)(C)C2 [Compound 51]
[1]; [5]
  EC50: < 5 µM
[2]; [6]
  IC50: > 10 µM

## CCn1c(-c2cccnc2[C@H](C)OC)c2c3cc(ccc31)-c1cc(O)cc(c1)C[C@H](NC(=O)[C@H](C(C)C)N(C)C(=O)N1CCCN(C(=O)[C@H]3CN3)CC1)C(=O)N1CCC[C@H](N1)C(=O)OCC(C)(C)C2 [Compound 190]
[1]; [3]
  EC50: < 5 µM
[2]; [4]
  IC50: 1 to 10 µM

## CCn1c(-c2cccnc2[C@H](C)OC)c2c3cc(ccc31)-c1cc(O)cc(c1)C[C@H](NC(=O)[C@H](C(C)C)N(C)C(=O)c1ccc(NC(=O)[C@H]3CN3)cn1)C(=O)N1CCC[C@H](N1)C(=O)OCC(C)(C)C2 [Compound 127]
[1]; [3]
  EC50: < 5 µM
[2]; [4]
  IC50: > 10 µM

## CCn1c(-c2cccnc2[C@H](C)OC)c2c3cc(ccc31)-c1cc(O)cc(c1)C[C@H](NC(=O)[C@H](C1CCCC1)N(C)C(=O)CN(C)C(=O)[C@H]1N[C@H]1C1(F)CC1)C(=O)N1CCC[C@H](N1)C(=O)OCC(C)(C)C2 [Compound 315]
[1]; [3]
  EC50: < 5 µM
[2]; [4]
  IC50: 0.1 to 1 µM

## CCn1c(-c2cccnc2[C@H](C)OC)c2c3cc(ccc31)-c1csc(n1)C[C@H](NC(=O)[C@H](C(C)C)N(C)C(=O)N1CC(N(C)C(=O)[C@@H]3CN3)C1)C(=O)N1CCC[C@H](N1)C(=O)OCC(C)(C)C2 [Compound 219]
[1]; [3]
  EC50: < 5 µM
[2]; [4]
  IC50: 1 to 10 µM

## CCn1c(-c2cccnc2[C@H](C)OC)c2c3cc(ccc31)-c1cc(O)cc(c1)C[C@H](NC(=O)[C@H](C(C)C)N(C)C(=O)[C@@H]1CCCN(C(=O)[C@H]3CN3)C1)C(=O)N1CCC[C@H](N1)C(=O)OCC(C)(C)C2 [Compound 237]
[1]; [3]
  EC50: < 5 µM
[2]; [4]
  IC50: 1 to 10 µM

## CCn1c(-c2cccnc2[C@H](C)OC)c2c3cc(ccc31)-c1cc(O)cc(c1)C[C@H](NC(=O)[C@H](C(C)C)N(C)C(=O)[C@H]1C[C@@H]3N[C@@H]3C1)C(=O)N1CCC[C@H](N1)C(=O)OCC(C)(C)C2 [Compound 286]
[1]; [3]
  EC50: < 5 µM
[2]; [4]
  IC50: 1 to 10 µM

## CCn1c(-c2cccnc2[C@H](C)OC)c2c3cc(ccc31)-c1cc(O)cc(c1)C[C@H](NC(=O)[C@H](C1CCCC1)N(C)C(=O)[C@@H](C)N(C)C(=O)[C@@H]1N[C@@H]1C1CC1)C(=O)N1CCC[C@H](N1)C(=O)OCC(C)(C)C2 [Compound 327]
[1]; [3]
  EC50: < 5 µM
[2]; [4]
  IC50: 1 to 10 µM

## CCn1c(-c2cccnc2[C@H](C)OC)c2c3cc(ccc31)-c1cc(O)cc(c1)C[C@H](NC(=O)[C@H](C(C)C)N(C)C(=O)CN(C)C(=O)[C@@H]1CN1CCO)C(=O)N1CCC[C@H](N1)C(=O)OCC(C)(C)C2 (stereo partly shown) [Compound 162]
[1]; [5]
  EC50: < 5 µM
[2]; [6]
  IC50: 1 to 10 µM
